Test results: ChEMBL document CHEMBL2074558, “rOCT2 is a basolateral potential-driven carrier, not an organic cation/proton exchanger” (Am J Physiol, 1999)

Experiments:
Assay type in all cases: functional, cell-based
[1] = target: T1, Solute carrier family 22 member 2 (Rattus norvegicus, UniProt Q9R0W2); test: TP_TRANSPORTER: TEA uptake (TEA: 200 uM, Quinacrine: 200 uM) in Xenopus laevis oocytes; details: oocyte
T1 sequence (Q9R0W2 whole entry): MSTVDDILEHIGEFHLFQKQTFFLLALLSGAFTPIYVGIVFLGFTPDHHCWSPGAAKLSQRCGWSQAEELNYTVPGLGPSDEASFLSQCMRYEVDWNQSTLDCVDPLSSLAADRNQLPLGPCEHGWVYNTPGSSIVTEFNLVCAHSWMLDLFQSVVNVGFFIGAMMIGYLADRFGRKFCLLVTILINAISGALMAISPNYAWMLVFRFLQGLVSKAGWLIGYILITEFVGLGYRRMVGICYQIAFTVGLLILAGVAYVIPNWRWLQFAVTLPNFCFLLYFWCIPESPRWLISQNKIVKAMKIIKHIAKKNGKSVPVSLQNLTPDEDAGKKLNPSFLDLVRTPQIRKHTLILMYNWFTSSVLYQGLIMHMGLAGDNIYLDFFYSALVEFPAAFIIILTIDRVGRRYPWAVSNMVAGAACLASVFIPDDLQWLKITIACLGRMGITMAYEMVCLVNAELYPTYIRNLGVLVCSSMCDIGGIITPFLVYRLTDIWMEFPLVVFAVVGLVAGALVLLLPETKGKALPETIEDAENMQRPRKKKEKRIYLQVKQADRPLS

[2] = target: T1, Solute carrier family 22 member 2; test: TP_TRANSPORTER: inhibition of TEA uptake (apical to cell)(TEA: 100 uM, Quinacrine: 200 uM) in OCT2-expressing MDCK cells; details: dog
[3] = target: T1, Solute carrier family 22 member 2; test: TP_TRANSPORTER: inhibition of TEA uptake (apical to cell)(TEA: 100 uM, Quinine: 200 uM) in OCT2-expressing MDCK cells; details: dog
[4] = target: T1, Solute carrier family 22 member 2; test: TP_TRANSPORTER: TEA uptake (TEA: 200 uM, Quinine: 200 uM) in Xenopus laevis oocytes; details: oocyte
[5] = target: T1, Solute carrier family 22 member 2; test: TP_TRANSPORTER: inhibition of TEA uptake (apical to cell)(TEA: 100 uM, NMN: 5000 uM) in OCT2-expressing MDCK cells; details: dog

CCN(CC)CCCC(C)Nc1c2ccc(Cl)cc2nc2ccc(OC)cc12 (stereo not given) [QUINACRINE]
Activity [1]: inhibitor [+]
Activity [2]: inhibitor [+]

C=C[C@H]1C[N@@]2CC[C@H]1C[C@H]2[C@H](O)c1ccnc2ccc(OC)cc12 [QUININE]
Activity [3]: inhibitor [+]
Activity [4]: inhibitor [+]

CNC(=O)c1cccnc1 [NICOTINYL METHYLAMIDE]
Activity [5]: inhibitor [+]
